Results on five compounds are retold here after the supplement of paper PMC10307832.

One test has as its system A-427. As to the kind of experiment: relative viability (nuclei count vs DMSO), 5 days (fraction); higher = more cells survive. The note with it: first compound 0.8 µM. Put shortly:
(§1)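 Dosing by pin tool came one day after lung cancer cell lines were seeded in 1536-well plates, using either one drug or a fixed anchor-drug dose plus five library-drug doses (not always all listed) in √10 steps. After 5 days, nuclei were counted on 4× images. Relative viability is treated-well nuclei count divided by vehicle-well nuclei count, and values are medians of duplicate plates.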
Turning to `CCCCCCCCCCCC1=C(O)C(=O)C=C(O)C1=O` [Embelin] + COc1cccc2cc(-c3nc([C@H]4CC[C@H](C(=O)O)CC4)n4ncnc(N)c34)[nH]c12 [OSI-027] (partner 0.5 µM), the relative viability stood at 0.495.
Same read-out and setting: next, `CCCCCCCCCCCC1=C(O)C(=O)C=C(O)C1=O` [Embelin] + Nc1nc2[nH]cc(CCc3ccc(C(=O)N[C@@H](CCC(=O)O)C(=O)O)cc3)c2c(=O)[nH]1 [Pemetrexed] (partner 0.2 µM): 1.07.

The same test, now with this note: first compound 2.53 µM.
`CCCCCCCCCCCC1=C(O)C(=O)C=C(O)C1=O` [Embelin] + Cc1cc(Nc2cc(N3CCN(C)CC3)nc(Sc3ccc(NC(=O)C4CC4)cc3)n2)n[nH]1 [Tozasertib] (partner 0.1 µM) had a relative viability of 0.188.
Take `CCCCCCCCCCCC1=C(O)C(=O)C=C(O)C1=O` [Embelin] + CC(=O)Nc1cccc(-n2c(=O)n(C3CC3)c(=O)c3c(Nc4ccc(I)cc4F)n(C)c(=O)c(C)c32)c1 [Trametinib] (partner 0.02 µM): the relative viability was 0.7.
On the same count and under the same terms, the figure for `CCCCCCCCCCCC1=C(O)C(=O)C=C(O)C1=O` [Embelin] + Nc1ncn([C@H]2C[C@H](O)[C@@H](CO)O2)c(=O)n1 [Decitabine] (partner 2 µM) is 0.561; for `CCCCCCCCCCCC1=C(O)C(=O)C=C(O)C1=O` [Embelin] + COc1cccc2cc(-c3nc([C@H]4CC[C@H](C(=O)O)CC4)n4ncnc(N)c34)[nH]c12 [OSI-027] (partner 0.5 µM) it is 0.439; for `CCCCCCCCCCCC1=C(O)C(=O)C=C(O)C1=O` [Embelin] + Nc1nc2[nH]cc(CCc3ccc(C(=O)N[C@@H](CCC(=O)O)C(=O)O)cc3)c2c(=O)[nH]1 [Pemetrexed] (partner 0.2 µM) it is 0.963.

Staying with this test, now noted: first compound 8 µM.
`CCCCCCCCCCCC1=C(O)C(=O)C=C(O)C1=O` [Embelin] + Cc1cc(Nc2cc(N3CCN(C)CC3)nc(Sc3ccc(NC(=O)C4CC4)cc3)n2)n[nH]1 [Tozasertib] (partner 0.1 µM) displayed a relative viability of 0.243.
Compound `CCCCCCCCCCCC1=C(O)C(=O)C=C(O)C1=O` [Embelin] + CC(=O)Nc1cccc(-n2c(=O)n(C3CC3)c(=O)c3c(Nc4ccc(I)cc4F)n(C)c(=O)c(C)c32)c1 [Trametinib] (partner 0.02 µM) gave a relative viability of 0.624.
The compound `CCCCCCCCCCCC1=C(O)C(=O)C=C(O)C1=O` [Embelin] + Nc1ncn([C@H]2C[C@H](O)[C@@H](CO)O2)c(=O)n1 [Decitabine] (partner 2 µM) showed a relative viability of 0.54.
On the same count and under the same terms, next, `CCCCCCCCCCCC1=C(O)C(=O)C=C(O)C1=O` [Embelin] + COc1cccc2cc(-c3nc([C@H]4CC[C@H](C(=O)O)CC4)n4ncnc(N)c34)[nH]c12 [OSI-027] (partner 0.5 µM): 0.497; `CCCCCCCCCCCC1=C(O)C(=O)C=C(O)C1=O` [Embelin] + Nc1nc2[nH]cc(CCc3ccc(C(=O)N[C@@H](CCC(=O)O)C(=O)O)cc3)c2c(=O)[nH]1 [Pemetrexed] (partner 0.2 µM): 0.502.

Another test has as its system LOU-NH91. Described as above. To be noted: first compound 0.08 µM. Put shortly:
as §1
Turning to `CCCCCCCCCCCC1=C(O)C(=O)C=C(O)C1=O` [Embelin] + Cc1cc(Nc2cc(N3CCN(C)CC3)nc(Sc3ccc(NC(=O)C4CC4)cc3)n2)n[nH]1 [Tozasertib] (partner 0.1 µM), the relative viability was found to be 0.751.
With `CCCCCCCCCCCC1=C(O)C(=O)C=C(O)C1=O` [Embelin] + CC(=O)Nc1cccc(-n2c(=O)n(C3CC3)c(=O)c3c(Nc4ccc(I)cc4F)n(C)c(=O)c(C)c32)c1 [Trametinib] (partner 0.02 µM), the relative viability turned out to be 0.785.
As for `CCCCCCCCCCCC1=C(O)C(=O)C=C(O)C1=O` [Embelin] + Nc1ncn([C@H]2C[C@H](O)[C@@H](CO)O2)c(=O)n1 [Decitabine] (partner 2 µM), the relative viability was determined as 0.825.
As to `CCCCCCCCCCCC1=C(O)C(=O)C=C(O)C1=O` [Embelin] + COc1cccc2cc(-c3nc([C@H]4CC[C@H](C(=O)O)CC4)n4ncnc(N)c34)[nH]c12 [OSI-027] (partner 0.5 µM), the relative viability came to 0.691.
Take `CCCCCCCCCCCC1=C(O)C(=O)C=C(O)C1=O` [Embelin] + Nc1nc2[nH]cc(CCc3ccc(C(=O)N[C@@H](CCC(=O)O)C(=O)O)cc3)c2c(=O)[nH]1 [Pemetrexed] (partner 0.2 µM): the relative viability came to 0.357.

The same test, now with this note: first compound 0.8 µM.
Compound `CCCCCCCCCCCC1=C(O)C(=O)C=C(O)C1=O` [Embelin] + Cc1cc(Nc2cc(N3CCN(C)CC3)nc(Sc3ccc(NC(=O)C4CC4)cc3)n2)n[nH]1 [Tozasertib] (partner 0.1 µM) showed a relative viability of 0.827.
As for `CCCCCCCCCCCC1=C(O)C(=O)C=C(O)C1=O` [Embelin] + CC(=O)Nc1cccc(-n2c(=O)n(C3CC3)c(=O)c3c(Nc4ccc(I)cc4F)n(C)c(=O)c(C)c32)c1 [Trametinib] (partner 0.02 µM), the relative viability amounted to 0.831.
The same measure, in the same setting: next, `CCCCCCCCCCCC1=C(O)C(=O)C=C(O)C1=O` [Embelin] + Nc1ncn([C@H]2C[C@H](O)[C@@H](CO)O2)c(=O)n1 [Decitabine] (partner 2 µM): 0.893; `CCCCCCCCCCCC1=C(O)C(=O)C=C(O)C1=O` [Embelin] + COc1cccc2cc(-c3nc([C@H]4CC[C@H](C(=O)O)CC4)n4ncnc(N)c34)[nH]c12 [OSI-027] (partner 0.5 µM): 0.851; `CCCCCCCCCCCC1=C(O)C(=O)C=C(O)C1=O` [Embelin] + Nc1nc2[nH]cc(CCc3ccc(C(=O)N[C@@H](CCC(=O)O)C(=O)O)cc3)c2c(=O)[nH]1 [Pemetrexed] (partner 0.2 µM): 0.385.

Staying with this test, now noted: first compound 2.53 µM.
In turn, `CCCCCCCCCCCC1=C(O)C(=O)C=C(O)C1=O` [Embelin] + Cc1cc(Nc2cc(N3CCN(C)CC3)nc(Sc3ccc(NC(=O)C4CC4)cc3)n2)n[nH]1 [Tozasertib] (partner 0.1 µM) had a relative viability of 0.749.
Same read-out and setting: the figure for `CCCCCCCCCCCC1=C(O)C(=O)C=C(O)C1=O` [Embelin] + CC(=O)Nc1cccc(-n2c(=O)n(C3CC3)c(=O)c3c(Nc4ccc(I)cc4F)n(C)c(=O)c(C)c32)c1 [Trametinib] (partner 0.02 µM) is 0.828; for `CCCCCCCCCCCC1=C(O)C(=O)C=C(O)C1=O` [Embelin] + Nc1ncn([C@H]2C[C@H](O)[C@@H](CO)O2)c(=O)n1 [Decitabine] (partner 2 µM) it is 0.852; for `CCCCCCCCCCCC1=C(O)C(=O)C=C(O)C1=O` [Embelin] + COc1cccc2cc(-c3nc([C@H]4CC[C@H](C(=O)O)CC4)n4ncnc(N)c34)[nH]c12 [OSI-027] (partner 0.5 µM) it is 0.743.
Still for that read-out and setting: the figure for `CCCCCCCCCCCC1=C(O)C(=O)C=C(O)C1=O` [Embelin] + Nc1nc2[nH]cc(CCc3ccc(C(=O)N[C@@H](CCC(=O)O)C(=O)O)cc3)c2c(=O)[nH]1 [Pemetrexed] (partner 0.2 µM) is 0.381.

Staying with this test, now noted: first compound 8 µM.
Take `CCCCCCCCCCCC1=C(O)C(=O)C=C(O)C1=O` [Embelin] + Cc1cc(Nc2cc(N3CCN(C)CC3)nc(Sc3ccc(NC(=O)C4CC4)cc3)n2)n[nH]1 [Tozasertib] (partner 0.1 µM): the relative viability amounted to 0.808.
Still for that read-out and setting: the figure for `CCCCCCCCCCCC1=C(O)C(=O)C=C(O)C1=O` [Embelin] + CC(=O)Nc1cccc(-n2c(=O)n(C3CC3)c(=O)c3c(Nc4ccc(I)cc4F)n(C)c(=O)c(C)c32)c1 [Trametinib] (partner 0.02 µM) is 0.805.
